Like-named read-outs stand apart in the source and are kept apart here. Marks after values point to notes of the source that are not given here.
Assay: log P by HPLC (EEC Directive 79/831 Annex V.A8)
Format: physicochemical
[1] = [b] LC-MS, acidic range, pH 2.7, 0.1% aqueous formic acid and acetonitrile
[2] = [c] LC-MS, neutral range, pH 7.8, 0.001 molar aqueous ammonium hydrogencarbonate and acetonitrile
[3] = [a] HPLC, acidic range, pH 2.3, 0.1% aqueous phosphoric acid and acetonitrile
[4] = HPLC, pH 2.7, given in the preparation examples, read-out: logP (pH2.7)

SMILES | log P [1] | log P [2] | also measured
Cc1cc(C(F)(F)F)nn1CC(=O)N1CCC(c2cccc(C(=O)OCC#Cc3ccccc3Cl)n2)CC1 [Example 36] | 4.03^[b] |  | 
Cc1cc(C(F)(F)F)nn1CC(=O)N1CCC(c2cccc(C(=O)SCc3ccc(F)cc3)n2)CC1 [Example 59] | 4.29 | 4.31 | 
O=C(NCc1ccccc1Cl)c1cccc(N2CCN(C(=O)Cn3nc(C(F)F)cc3C(F)F)CC2)n1 [Example 146] |  | 3.26 | log P [3]: 3.24
Cc1ccsc1CNC(=O)c1cccc(C2CCN(C(=O)Cn3nc(C(F)F)cc3C(F)F)CC2)n1 [Example 92] | 3.19 | 3.18 | 
O=C(OC1CCCCC1F)c1cccc(C2CCN(C(=O)Cn3nc(C(F)F)cc3C(F)F)CC2)n1 (centres unmarked) [Example 115] | 3.37^[b] |  | 
Cc1cc(C(F)(F)F)nn1CC(=O)N1CCC(c2cccc(C(=O)Oc3ccc4ccccc4c3)n2)CC1 [Example 52] | 3.9^[b] |  | 
Cc1cc(C(F)(F)F)nn1CC(=O)N1CCC(c2cccc(C(=O)Nc3ccc4ccccc4c3)n2)CC1 [Example 30] | 4.09 | 4.11 | 
Cc1cc(C(F)(F)F)nn1CC(=O)N1CCC(c2cccc(C(=O)N(C)C3CCCCC3)n2)CC1 [Example 11] | 3.15 | 3.18 | 
CC(C)(C)OC(=O)N1CCN(c2cccc(Br)n2)CC1 [tert-Butyl 4-(6-bromopyridin-2-yl)piperazine-1-carboxylate] |  |  | chromatographic logP [4]: 4.08
Cc1cc(C(F)(F)F)nn1CC(=O)N1CCC(c2cccc(C(=O)OCc3ccc(F)cc3F)n2)CC1 [Example 42] | 3.6^[b] |  | 
CN(C(=O)c1cccc(C2CCN(C(=O)Cn3nc(C(F)F)cc3C(F)F)CC2)n1)C1CCCCC1 [Example 78] | 3.02 | 3.08 | 
Cc1cc(C(F)(F)F)nn1CC(=O)N1CCC(c2cccc(C(=O)N(C)Cc3ccc(Cl)cc3Cl)n2)CC1 [Example 13] | 3.85^[b]; 3.85^[c] | 3.85^[b]; 3.85^[c] | 
O=C(Sc1ccccc1)c1cccc(N2CCN(C(=O)Cn3nc(C(F)F)cc3C(F)F)CC2)n1 [Example 122] |  | 3.81 | log P [3]: 3.79
Cc1cc(C(F)(F)F)nn1CC(=O)N1CCC(c2cccc(C(=O)NC3CCCCC3)n2)CC1 [Example 18] |  | 3.46^[c] | 
Cc1cc(C(F)(F)F)nn1CC(=O)N1CCC(c2cccc(C(=O)OCCCC(F)(F)F)n2)CC1 [Example 6] | 3.37^[b] |  | 
O=C(Sc1cccc2ccccc12)c1cccc(C2CCN(C(=O)Cn3nc(C(F)F)cc3C(F)F)CC2)n1 [Example 114] |  | 4.42 | log P [3]: 4.4
CC(C)(C)OC(=O)N1CCC(c2cccc(C(=O)O)n2)CC1 [6-[1-(tert-Butoxycarbonyl)piperidin-4-yl]pyridine-2-carboxylic acid] |  |  | chromatographic logP [4]: 1.78
COCCOC(=O)c1cccc(C2CCN(C(=O)Cn3nc(C(F)(F)F)cc3C)CC2)n1 [Example 41] | 2.46^[b] |  | 
Cc1cc(C(F)(F)F)nn1CC(=O)N1CCC(c2cccc(C(=O)OC3CCCCC3F)n2)CC1 (centres unmarked) [Example 116] | 3.43^[b] |  | 
Cc1cc(C(F)(F)F)nn1CC(=O)N1CCC(c2cccc(C(=O)OC3C=CCCC3)n2)CC1 (centres unmarked) [Example 33] | 3.64^[b] |  | 

SMILES | log P [1] | log P [2] | also measured
Cc1ccccc1CSC(=O)c1cccc(C2CCN(C(=O)Cn3nc(C(F)F)cc3C(F)F)CC2)n1 [Example 133] |  | 4.41 | log P [3]: 4.39
Cc1cc(C(F)(F)F)nn1CC(=O)N1CCC(c2cccc(C(=O)OCc3ccccc3C(F)(F)F)n2)CC1 [Example 45] | 3.97^[b] |  | 
Cc1cc(C(F)(F)F)nn1CC(=O)N1CCC(c2cccc(C(=O)NCc3ccccc3Cl)n2)CC1 [Example 23] | 3.49 | 3.52 | 
O=C(NCc1ccc(Cl)cc1Cl)c1cccc(N2CCN(C(=O)Cn3nc(C(F)F)cc3C(F)F)CC2)n1 [Example 144] |  | 3.7 | log P [3]: 3.68
CCOC(=O)c1cccc(C2CCN(C(=O)Cn3nc(C(F)(F)F)cc3C)CC2)n1 [Example 134] | 2.74^[b] |  | 
CCOC(=O)c1cccc(C2CCNCC2)n1 [4-[6-(Ethoxycarbonyl)pyridin-2-yl]piperidinium chloride] |  |  | chromatographic logP [4]: 0.55
CCOC(=O)c1cccc(C2CCN(C(=O)OC(C)(C)C)CC2)n1 [Ethyl 6-[1-(tert-butoxycarbonyl)piperidin-4-yl]pyridine-2-carboxylate] |  |  | chromatographic logP [4]: 3.29
Cc1cc(C(F)(F)F)nn1CC(=O)N1CCC(c2cccc(C(=O)SCc3ccccc3Cl)n2)CC1 [Example 57] | 4.61^[b]; 4.61^[c] | 4.61^[b]; 4.61^[c] | 
Cc1cc(C(F)(F)F)nn1CC(=O)N1CCN(c2cccc(C(=O)NCc3ccccc3Cl)n2)CC1 [Example 65] | 3.34 | 3.36 | 
CCCCCCCSC(=O)c1cccc(N2CCN(C(=O)Cn3nc(C(F)F)cc3C(F)F)CC2)n1 [Example 130] |  | 5.38 | log P [3]: 5.4
Cc1cc(C(F)(F)F)nn1CC(=O)N1CCC(c2cccc(C(=O)SCc3ccc(Cl)cc3Cl)n2)CC1 [Example 55] | 5.17 | 5.21 | 
O=C(OCc1ccc(F)cc1F)c1cccc(C2CCN(C(=O)Cn3nc(C(F)F)cc3C(F)F)CC2)n1 [Example 103] | 3.54^[b] |  | 
Cc1cc(C(F)(F)F)nn1CC(=O)N1CCN(c2cccc(C(=O)NCc3c(F)cccc3F)n2)CC1 [Example 66] | 3.11 | 3.12 | 
CCCCCCCNC(=O)c1cccc(C2CCN(C(=O)Cn3nc(C(F)(F)F)cc3C)CC2)n1 [Example 20] | 4.25 | 4.24 | 
CCCCCCCSC(=O)c1cccc(C2CCN(C(=O)Cn3nc(C(F)F)cc3C(F)F)CC2)n1 [Example 129] |  | 5.44 | log P [3]: 5.43
O=C(OCc1ccccc1F)c1cccc(C2CCN(C(=O)Cn3nc(C(F)F)cc3C(F)F)CC2)n1 [Example 106] | 3.45^[b] |  | 
CCOC(=O)c1cccc(C2CCN(C(=O)Cn3nc(C(F)F)cc3C(F)F)CC2)n1 [Example 131, Ethyl 6-(1-{[3,5-bis(difluoromethyl)-1H-pyrazol-1-yl]acetyl}piperidin-4-yl)pyridine-2-carboxylate] |  |  | chromatographic logP (HPLC (LC-MS), [b] LC-MS, acidic range, pH 2.7, 0.1% aqueous formic acid and acetonitrile, read-out: log P): 2.68; chromatographic logP [4]: 2.68
O=C(NC1CCc2ccccc21)c1cccc(C2CCN(C(=O)Cn3nc(C(F)F)cc3C(F)F)CC2)n1 (centres unmarked) [Example 84] | 3.4 | 3.44 | 
Cc1cc(C(F)(F)F)nn1CC(=O)N1CCC(c2cccc(C(=O)OCc3c(F)cc(F)cc3F)n2)CC1 [Example 43] | 3.69^[b] |  | 
Cc1cc(C(F)(F)F)nn1CC(=O)N1CCC(c2cccc(C(=O)N(C)Cc3ccccc3Br)n2)CC1 [Example 2] | 3.47 | 3.49 | 

SMILES | log P [1] | log P [2] | also measured
Cc1ccccc1CSC(=O)c1cccc(C2CCN(C(=O)Cn3nc(C(F)(F)F)cc3C)CC2)n1 [Example 56] | 4.57 | 4.58 | 
O=C(OCc1ccccc1OC(F)(F)F)c1cccc(C2CCN(C(=O)Cn3nc(C(F)F)cc3C(F)F)CC2)n1 [Example 9] | 3.89^[b] |  | 
CCCCCC(C)NC(=O)c1cccc(C2CCN(C(=O)Cn3nc(C(F)F)cc3C(F)F)CC2)n1 (centres unmarked) [Example 83] | 3.99 | 3.95 | 
O=C(OC1CCCCC1)c1cccc(N2CCN(C(=O)Cn3nc(C(F)F)cc3C(F)F)CC2)n1 [Example 119] |  | 4.65 | log P [3]: 4.61
O=C(NCc1ccc(Cl)cc1Cl)c1cccc(C2CCN(C(=O)Cn3nc(C(F)F)cc3C(F)F)CC2)n1 [Example 86] | 3.86^[b]; 3.86^[c] | 3.86^[b]; 3.86^[c] | 
CCOC(=O)c1cccc(N2CCN(C(=O)Cn3nc(C(F)F)cc3C(F)F)CC2)n1 [Ethyl 6-(4-{[3,5-bis(difluoromethyl)-1H-pyrazol-1-yl]acetyl}piperazin-1-yl)pyridine-2-carboxylate] |  |  | chromatographic logP [4]: 2.71
Cc1cc(C(F)(F)F)nn1CC(=O)N1CCC(c2cccc(C(=O)NCc3c(F)cccc3F)n2)CC1 [Example 24] | 3.33 | 3.26 | 
Cc1cc(C(F)(F)F)nn1CC(=O)N1CCC(c2cccc(C(=O)NC3CCc4ccccc43)n2)CC1 (racemic) [Example 19] | 3.56^[b]; 3.56^[c] | 3.56^[b]; 3.56^[c] | 
O=C(Cn1nc(C(F)F)cc1C(F)F)N1CCC(c2cccc(C(=O)N3CCOc4ccccc43)n2)CC1 [Example 81] | 2.98 | 2.97 | 
CC(C)(C)OC(=O)N1CCC(O)(c2cccc(Br)n2)CC1 [tert-Butyl 4-(6-bromopyridin-2-yl)-4-hydroxypiperidine-1-carboxylate] |  |  | chromatographic logP [4]: 3.05
Cc1cccnc1COC(=O)c1cccc(C2CCN(C(=O)Cn3nc(C(F)(F)F)cc3C)CC2)n1 [Example 49] | 2.23^[b] |  | 
Cc1cc(C(F)(F)F)nn1CC(=O)N1CCC(c2cccc(C(=O)Sc3ccc4ccccc4c3)n2)CC1 [Example 61] | 4.57 | 4.61 | 
Cc1cc(C(F)(F)F)nn1CC(=O)N1CCC(c2cccc(C(=O)Oc3cccc4ccccc34)n2)CC1 [Example 51] | 3.97^[b] |  | 
CCCCCCCOC(=O)c1cccc(C2CCN(C(=O)Cn3nc(C(F)(F)F)cc3C)CC2)n1 [Example 40] | 4.73^[b] |  | 
Cc1cc(C(F)(F)F)nn1CC(=O)N1CCC(c2cccc(C(=O)NCc3ccccc3Br)n2)CC1 [Example 5] | 3.59^[b]; 3.59^[c] | 3.59^[b]; 3.59^[c] | 
Cc1cc(C(F)(F)F)nn1CC(=O)N1CCC(c2cccc(C(=O)Sc3ccccc3)n2)CC1 [Example 62] | 3.95^[b]; 3.95^[c] | 3.95^[b]; 3.95^[c] | 
Cc1cc(C(F)(F)F)nn1CC(=O)N1CCC(c2cccc(C(=O)NCc3cccs3)n2)CC1 [Example 26] | 3.15 | 3.1 | 
Cc1cc(C(F)(F)F)nn1CC(=O)N1CCC(c2cccc(C(=O)NC(C)c3ccccc3Cl)n2)CC1 (racemic) [Example 16] | 3.82 | 3.75 | 
